Results: PubChem BioAssay AID1361 (SRMLSC, 2008)
Active and inactive are the calls of the source. How the calls were made is not given here.

Test: blockers of mitochondrial fusion, WT vs mutant – cell-based, chemical genetic, wild-type and mutant, confirmation (AID 1361)
Conditions: Cell-based mitochondrial fusion phenotype, imaging
[1] = mutant cells, measured here: mutant cell line IC50

| Structure (SMILES) | IC50 (WT cells) | IC50 [1] [µM] |
| --- | --- | --- |
| O=C(NCCCN1CCOCC1)c1ccccc1-c1ccccc1 | > 25 µM (inactive) | > 25 |
| Cc1nn(C(C)(C)C)c(OC(=O)c2ccc3c(c2)OCO3)c1Sc1ccccc1 | 8.28 µM | > 25 |
| CCCCCCn1c(N2CCN(c3ccccc3)CC2)nc2c1c(=O)n(C)c(=O)n2C | 19.9 µM | > 25 |
| O=C(CSc1ncn[nH]1)NCc1ccccc1 | > 25 µM (inactive) | > 25 |
| O=C(N/N=C/c1cccc(O)c1)c1ccc(COc2ccccc2Br)cc1 | 18.8 µM | > 25 |
| CC(=O)Nc1cccc(Oc2ncnc3scc(-c4ccc(C(C)C)cc4)c23)c1 | 14.5 µM | > 25 |
| O=C(NCC(c1cccnc1)N1CCOCC1)c1ccco1 (stereo not given) | > 25 µM (inactive) | > 25 |
| CCOC(=O)C1=NN(c2cccc(C)c2)C2(S1)SC(C(C)=O)=C(C)N2c1ccccc1 (stereo not given) | 8.2 µM | > 25 |
| CC1CCc2c(sc(NC(=O)COC(=O)c3ccc(O)cc3)c2C#N)C1 (stereo not given) | > 25 µM (inactive) | > 25 |
| N#C[C@H]1[C@H](c2ccccc2)[C@](C#N)(C(=O)c2ccccc2)[C@@H]2C=Cc3ccccc3N21 | > 25 µM (inactive) | > 25 |
| C=C(C)c1cccc(C(C)(C)NC(=O)Nc2ccc(Cl)cn2)c1 | 12.8 µM | > 25 |
| COc1ccc(Br)cc1CN(C)CC(=O)Nc1ccccc1Cl | 19.8 µM | > 25 |
| Cc1ccc(CC2SC(=Nc3ccccc3)N(c3ccccc3)C2=O)cc1 (stereo not given) | 18.7 µM | > 25 |
| CC(C)C1OC(c2cccc(NC(=O)c3cccs3)c2)OCC1(C)C (stereo not given) | > 25 µM (inactive) | > 25 |
| Cc1ccc(C)c(NC(=O)c2cc(-c3ccccc3)nn2-c2ccccc2)c1 | 4.99 µM | > 25 |
| O=C(COC(=O)c1ccccc1Cc1ccccc1)Nc1ccc(SC(F)F)cc1 | 5.92 µM | > 25 |

| Structure (SMILES) | IC50 (WT cells) | IC50 [1] [µM] |
| --- | --- | --- |
| CCOc1cccc(-c2nn(-c3ccccc3)cc2/C=C(/C#N)C(=O)NCCCn2ccnc2)c1 | > 25 µM (inactive) | > 25 |
| CCOC(=O)c1c(-c2cccs2)csc1NC(=O)C(C)(C)C | 24.5 µM | > 25 |
| O=S(=O)(NCC(Nc1ccc(Cl)cc1)c1ccccc1)c1ccccc1 (stereo not given) | 13.9 µM | > 25 |
| CCCCN(C(=O)c1cccc2c(=O)c(C)c(-c3ccccc3)oc12)c1ccccc1 | 14.7 µM | > 25 |
| C=CCn1c(COc2ccccc2-c2ccccc2)nnc1SCC(=O)NC(=O)NCc1ccco1 | > 25 µM (inactive) | > 25 |
| COc1ccc(C2C3=C(CC(C)(C)CC3=O)Oc3ncn(Cc4ccccc4)c(=N)c32)cc1 (stereo not given) | 12.6 µM | > 25 |
| N#CCCN(CCC#N)c1nnc(-c2ccccc2)s1 | > 25 µM (inactive) | > 25 |
| CCCNC(=O)c1ccccc1NC(=O)CSCc1ccc(OC)cc1 | > 25 µM (inactive) | > 25 |
| CCC(C)n1c(SCc2ccccc2)nc2ccsc2c1=O (stereo not given) | 22.9 µM | > 25 |
| CNC(=S)N/N=C/c1cccc(OCc2ccccc2F)c1 | > 25 µM (inactive) | > 25 |
| Cc1ccc(NCC(=O)N/N=C/c2cc3ccccc3nc2Cl)cc1 | > 25 µM (inactive) | > 25 |
| C/C=C(\C)CN1CCN(c2cc(C)ccc2C)CC1 | > 25 µM (inactive) | > 25 |
| CCOc1cc(C2Nc3ccccc3C(=O)N2c2ccccc2OC)ccc1O (stereo not given) | > 25 µM (inactive) | > 25 |
| CCC(=O)Nc1ccc(-c2nnc(SCc3ccc(C(=O)Nc4nccs4)cc3)n2CC)cc1 | > 25 µM (inactive) | > 25 |
| COc1ccccc1/C=C\C=N\n1c(-c2ccc(Cl)cc2Cl)n[nH]c1=S | 9.01 µM | > 25 |
| CCOc1ccc(NC(=O)C2CC(=O)N(C(C)C)C2)cc1 (stereo not given) | > 25 µM (inactive) | > 25 |

More lines, now with the values ahead:

| IC50 (WT cells) | IC50 [1] [µM] | Structure (SMILES) |
| --- | --- | --- |
| 5.68 µM | > 25 | CCOC(=O)C1=CN(c2cccc(F)c2)C=C(C(=O)OCC)C1c1cc(OC)c(O)c([N+](=O)[O-])c1 |
| > 25 µM (inactive) | > 25 | Cc1cc(C(=O)CSc2nnc(-c3ccc(Cl)cc3)n2CC2CCCO2)c(C)n1C (stereo not given) |
| 7.68 µM | > 25 | CC1=CN2C(=N)/C(=C/c3ccc(Sc4ccc(C)cc4)o3)C(=O)N=C2S1 |
| 13.2 µM | 17.9 | Clc1ccc(CNc2nc(CN3CCOCC3)nc3scc(-c4ccccc4)c23)cc1 |
| 20.2 µM | > 25 | CC(C)Oc1ccc(C(=O)NC2(C(F)(F)F)NC(=O)N(CCCc3ccccc3)C2=O)cc1 (stereo not given) |
| > 25 µM (inactive) | > 25 | Cc1cc(N2C(=O)C=CC2=O)c([N+](=O)[O-])cc1C |
| > 25 µM (inactive) | > 25 | Cc1cc(=O)[nH]c(SCC(N)=O)c1C#N |
| 15.1 µM | > 25 | Cc1ccc(/C=C/C(=O)N2CCC(Cc3ccccc3)CC2)cc1 |
| 13.8 µM | 24.2 | Cc1cc(NC(=O)COC(=O)C(Nc2ccc(C(F)(F)F)cc2Cl)C(C)C)no1 (stereo not given) |
| 10.4 µM | 24.2 | CCOC(=O)C1=C(C)NC(=S)NC1c1ccc(-c2ccc(Cl)cc2)o1 (stereo not given) |
| 8.69 µM | > 25 | CCN(Cc1ccccc1)C(c1ccc(C(F)(F)F)cc1)c1nnnn1C(C)(C)C (stereo not given) |
| 11.6 µM | 25 | Clc1ccccc1Cn1c(/C=C/c2ccco2)nc2ccccc21 |
| 14.1 µM | > 25 | CCCCOP(=O)(c1ccc(N(C)C)cc1)C(Nc1ccccc1)c1ccccc1 (stereo not given) |
| 9.38 µM | > 25 | COC(=O)CNC(c1ccccc1)c1cc(C)ccc1NC(=O)c1cccc(Cl)c1 (stereo not given) |
| 18.8 µM | > 25 | CC(C)N1C(=O)/C(=C\c2nc3ccccc3c(=O)n2-c2ccccc2)c2ccccc21 |
| 19.2 µM | > 25 | CC(c1ccccc1)N(CCC(c1ccccc1)C1CCOC(C)(C)C1)C(=O)c1ccco1 (stereo not given) |
| > 25 µM (inactive) | > 25 | COc1ccc2nc(NC(=O)c3cccc(OCc4c(C)noc4C)c3)sc2c1 |
| > 25 µM (inactive) | > 25 | Cc1nc(NC2=NCN(C3CCCCC3C)CN2)nc2ccccc12 (stereo not given) |
| > 25 µM (inactive) | > 25 | Nn1c(SCC(=O)Nc2ccc3c(c2)OCO3)nnc1-c1ccncc1 |
| 19.8 µM | > 25 | O=C(COC(=O)c1cc(-c2cccc(Br)c2)nc2ccccc12)NCC1CCCO1 (stereo not given) |
| > 25 µM (inactive) | > 25 | CC1CN(C(=O)N(C)C)CCN1C(=O)N(C)C (stereo not given) |
| 12.5 µM | 23.1 | S=c1[nH]nc(-c2cc3ccccc3o2)n1Cc1ccccc1 |
| 7.53 µM | 11.2 | CSC(=S)N/N=C/c1c[nH]c2ccccc12 |
| 19.6 µM | 23.2 | CCc1ccccc1N(CC)C(=O)CCc1nc(-c2ccc(C)cc2)no1 |
| > 25 µM (inactive) | > 12.5 | O=S(=O)(NCC(Nc1ccc(Cl)cc1)c1ccccc1)c1ccc(Cl)cc1 (stereo not given) |
| 7.73 µM | 24 | COC(=O)CN1C(c2cccc(Cl)c2)=Nc2ccc(Cl)cc2C1c1ccccc1 (stereo not given) |
| 11.2 µM | 23.8 | O=c1c2cn[nH]c2nc(SCc2ccccc2F)n1-c1ccc(Br)cc1 |
| > 25 µM (inactive) | > 12.5 | CCN1CCc2nc(NC(=O)c3ccccc3)sc2C1 |
